According to patent US6524556B2, “Aerosol compositions” (Fujisawa Pharmaceutical Co., Ltd., priority 1995, dated 2003):

Columns and labels:
Format in all cases: physicochemical
[1] = Effect of MCT content on the solubility of FK506 in HFAs; parameters: key to Solubility of FK506 in HFAs (solution or suspension): ∘: solution; —: suspension
Experimental: The addition of MCT enables the filling of FK506 as a solution into aerosol system. As a result, the change of spray performance will not be caused by aggregation of FK506 crystalline particles and the emitted dose uniformity of FK506 can be more reliable. The aerosol compositions used in this study were prepared according to a similar manner to that of Example 2.

[2] = Aerodynamic particle size distribution (USP23 Apparatus 1, multistage cascade impactor); settings: for Mass Median Aerodynamic Diameter: 0.05% FK506 aerosol composition
Experimental: Aerodynamic Particle Size Distribution According to the conventional method in USP23 (Apparatus 1), the aerodynamic particle size distribution was assessed from FK506 amount in each stage after applying one mg FK506 to multistage cascade impactor by firing FK506 aerosol composition. FK506 measurement was conducted by HPLC method and the MMAD was calculated from the particle size distribution. The FK506 aerosol compositions were prepared according to a similar manner to that of the below-mentioned Example 2.

[3] = Dissolution test of mist particles (JP12 paddle method); settings: for T 50% (dissolution rate of FK506): distilled water 37° C., paddle 50 rpm
Experimental: Dissolution Test FK506 dissolution from the mist particles after firing FK506 aerosol composition was examined in distilled water at 37° C. using the paddle method at 50 rpm, according to the dissolution test method in JP12. The emitted dose from aerosol composition was adjusted to be one mg FK506 as a total in the test fluid. FK506 was measured by HPLC method. The FK506 aerosol compositions were prepared according to a similar manner to that of Example 2.

Solubility of FK506 in HFAs (solution or suspension) ([1]; MCT content 0.05%, FK506 content 0.05 w/v % in HFA-134a): ∘
Solubility of FK506 in HFAs (solution or suspension) ([1]; MCT content 0.05%, FK506 content 0.05 w/v % in HFA-227): ∘
Solubility of FK506 in HFAs (solution or suspension) ([1]; MCT content 0.05%, FK506 content 0.1 w/v % in HFA-227): —
Solubility of FK506 in HFAs (solution or suspension) ([1]; MCT content 0.05%, FK506 content 0.2 w/v % in HFA-134a): —
Solubility of FK506 in HFAs (solution or suspension) ([1]; MCT content 0.05%, FK506 content 0.2 w/v % in HFA-227): —
Solubility of FK506 in HFAs (solution or suspension) ([1]; MCT content 0.05%, FK506 content 0.5 w/v % in HFA-227): —
Solubility of FK506 in HFAs (solution or suspension) ([1]; MCT content 0.5%, FK506 content 0.05 w/v % in HFA-134a): ∘
Solubility of FK506 in HFAs (solution or suspension) ([1]; MCT content 0.5%, FK506 content 0.05 w/v % in HFA-227): ∘
Solubility of FK506 in HFAs (solution or suspension) ([1]; MCT content 0.5%, FK506 content 0.1 w/v % in HFA-227): ∘
Solubility of FK506 in HFAs (solution or suspension) ([1]; MCT content 0.5%, FK506 content 0.2 w/v % in HFA-134a): —
Solubility of FK506 in HFAs (solution or suspension) ([1]; MCT content 0.5%, FK506 content 0.2 w/v % in HFA-227): —
Solubility of FK506 in HFAs (solution or suspension) ([1]; MCT content 0.5%, FK506 content 0.5 w/v % in HFA-227): —
Solubility of FK506 in HFAs (solution or suspension) ([1]; MCT content 2%, FK506 content 0.05 w/v % in HFA-134a): ∘
Solubility of FK506 in HFAs (solution or suspension) ([1]; MCT content 2%, FK506 content 0.05 w/v % in HFA-227): ∘
Solubility of FK506 in HFAs (solution or suspension) ([1]; MCT content 2%, FK506 content 0.1 w/v % in HFA-227): ∘
Solubility of FK506 in HFAs (solution or suspension) ([1]; MCT content 2%, FK506 content 0.2 w/v % in HFA-134a): ∘
Solubility of FK506 in HFAs (solution or suspension) ([1]; MCT content 2%, FK506 content 0.2 w/v % in HFA-227): ∘
Solubility of FK506 in HFAs (solution or suspension) ([1]; MCT content 2%, FK506 content 0.5 w/v % in HFA-227): —
Solubility of FK506 in HFAs (solution or suspension) ([1]; MCT content 5%, FK506 content 0.05 w/v % in HFA-134a): ∘
Solubility of FK506 in HFAs (solution or suspension) ([1]; MCT content 5%, FK506 content 0.05 w/v % in HFA-227): ∘
Solubility of FK506 in HFAs (solution or suspension) ([1]; MCT content 5%, FK506 content 0.1 w/v % in HFA-227): ∘
Solubility of FK506 in HFAs (solution or suspension) ([1]; MCT content 5%, FK506 content 0.2 w/v % in HFA-134a): ∘
Solubility of FK506 in HFAs (solution or suspension) ([1]; MCT content 5%, FK506 content 0.2 w/v % in HFA-227): ∘
Solubility of FK506 in HFAs (solution or suspension) ([1]; MCT content 5%, FK506 content 0.5 w/v % in HFA-227): —
Solubility of FK506 (change) ([1]; by mixing MCT into liquefied hydrofluoroalkanes): increased up
Mass Median Aerodynamic Diameter ([2]; propellant HFA-134a, MCT content 0.5%): 1.6 μm
Mass Median Aerodynamic Diameter ([2]; propellant HFA-227, MCT content 0.05%): 1.5 μm
Mass Median Aerodynamic Diameter ([2]; propellant HFA-227, MCT content 0.5%): 1.7 μm
Mass Median Aerodynamic Diameter ([2]; propellant HFA-227, MCT content 1%): 2.5 μm
Mass Median Aerodynamic Diameter ([2]; propellant HFA-227, MCT content 2%): 3.1 μm
Mass Median Aerodynamic Diameter ([2]; propellant HFA-227, MCT content 5%): 4.0 μm
T 50% (dissolution rate of FK506) ([3]; HFA-134a, MCT content 0.5%, FK506 0.05%): 29 min
T 50% (dissolution rate of FK506) ([3]; HFA-134a, MCT content 0.5%, FK506 0.2%): 11 min
T 50% (dissolution rate of FK506) ([3]; HFA-134a, MCT content 2%, FK506 0.05%): 41 min
T 50% (dissolution rate of FK506) ([3]; HFA-134a, MCT content 2%, FK506 0.2%): 25 min
T 50% (dissolution rate of FK506) ([3]; HFA-227, MCT content 0%, FK506 0.05%): 5 min
T 50% (dissolution rate of FK506) ([3]; HFA-227, MCT content 0%, FK506 0.2%): 9 min
T 50% (dissolution rate of FK506) ([3]; HFA-227, MCT content 0.5%, FK506 0.05%): 30 min
T 50% (dissolution rate of FK506) ([3]; HFA-227, MCT content 0.5%, FK506 0.2%): 12 min
T 50% (dissolution rate of FK506) ([3]; HFA-227, MCT content 1%, FK506 0.05%): 38 min
T 50% (dissolution rate of FK506) ([3]; HFA-227, MCT content 1%, FK506 0.2%): 15 min
T 50% (dissolution rate of FK506) ([3]; HFA-227, MCT content 2%, FK506 0.05%): 43 min
T 50% (dissolution rate of FK506) ([3]; HFA-227, MCT content 2%, FK506 0.2%): 28 min
T 50% (dissolution rate of FK506) ([3]; HFA-227, MCT content 5%, FK506 0.05%): 51 min
T 50% (dissolution rate of FK506) ([3]; HFA-227, MCT content 5%, FK506 0.2%): 37 min
Release rate of FK506 from the mist particles, trend ([3]; addition of MCT): declined with addition of MCT
SMILES: C=CC[C@@H]1/C=C(\C)C[C@H](C)C[C@H](OC)[C@H]2O[C@@](O)(C(=O)C(=O)N3CCCC[C@H]3C(=O)O[C@H](/C(C)=C/[C@@H]3CC[C@@H](O)[C@H](OC)C3)[C@H](C)[C@@H](O)CC1=O)[C@H](C)C[C@@H]2OC [FK506, 17-allyl-1,14-dihydroxy-12-[2-(4-hydroxy-3-methoxycyclohexyl)-1-methylvinyl]-23,25-dimethoxy-13,19,21,27-tetramethyl-11,28-dioxa-4-azatricyclo-[22.3.1.0^4,9]octacos-18-ene-2,3,10,16-tetraone]
Mass median aerodynamic diameter (MMAD), trend ([2]; FK506 aerosol composition, addition of MCT): increased in proportion to MCT amount added
